One may read the EC50 as the concentration at which the effect is half-maximal.

20 compounds from US9796711B2, “Substituted pyrazolo[3,4-b]pyridin-6-carboxylic acids and method of use” (AbbVie S.àr.l., priority 2015, dated 2017) can be followed below.

The target of experiment [1] is T1, ΔF508-CFTR (Homo sapiens, UniProt P13569, DEL508-508).
T1 construct: host or cells: CFBE41o-, doxycycline-inducible
As to the kind of experiment: CFTR cell surface levels using HRP-tagged ΔF508-CFTR expressing CFBE cells, in the presence of a co-corrector. The experiment is classed as cell-based. The following applies: HRP-tagged ΔF508-CFTR expressing CFBE cells, in the presence of 3 μM co-corrector; for EC50: read-out: EC50. Summed up:
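Cells were seeded with 0.5 μg/mL doxycycline and held 68 h at 37 °C. Test compounds plus 3 μM co-corrector (final 0.1% DMSO) were then added for 20 h at 33 °C. Washed cells received HRP substrate, and luminescence was normalized between DMSO and 3 μM co-corrector controls.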

The target of experiment [2] is T1, ΔF508-CFTR. As to the kind of experiment: CFTR cell surface levels using HRP-tagged ΔF508-CFTR expressing CFBE cells, intrinsic corrector capacity. The experiment is classed as cell-based. The following applies: for EC50: read-out: EC50. Summed up:
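Here the cells express ΔF508-CFTR with horseradish peroxidase inserted in extracellular loop 4, so only rescued channel at the surface gives luminescent signal. Compounds act on their own, 20 h at the reduced temperature of 33 °C; values are percent activity relative to DMSO and a 3 μM corrector.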

[3] abbreviates: HRP-tagged ΔF508-CFTR expressing CFBE cells, intrinsic corrector capacity (no co-corrector), 33° C., 20 hours.
Where [4] appears, read: HRP-tagged ΔF508-CFTR CFBE41o- cells, compounds alone (intrinsic corrector capacity), 20 hours at 33° C., positive control 3 μM corrector.
[5] abbreviates: HRP-tagged ΔF508-CFTR CFBE41o- cells, compounds alone (intrinsic corrector capacity), 20 hours at 33° C.
Setting [6] is: HRP-tagged ΔF508-CFTR CFBE cells, compound alone (intrinsic corrector capacity), 20 hours at 33° C.

T1 sequence (P13569 with tags, fused parts or gaps DEL508-508): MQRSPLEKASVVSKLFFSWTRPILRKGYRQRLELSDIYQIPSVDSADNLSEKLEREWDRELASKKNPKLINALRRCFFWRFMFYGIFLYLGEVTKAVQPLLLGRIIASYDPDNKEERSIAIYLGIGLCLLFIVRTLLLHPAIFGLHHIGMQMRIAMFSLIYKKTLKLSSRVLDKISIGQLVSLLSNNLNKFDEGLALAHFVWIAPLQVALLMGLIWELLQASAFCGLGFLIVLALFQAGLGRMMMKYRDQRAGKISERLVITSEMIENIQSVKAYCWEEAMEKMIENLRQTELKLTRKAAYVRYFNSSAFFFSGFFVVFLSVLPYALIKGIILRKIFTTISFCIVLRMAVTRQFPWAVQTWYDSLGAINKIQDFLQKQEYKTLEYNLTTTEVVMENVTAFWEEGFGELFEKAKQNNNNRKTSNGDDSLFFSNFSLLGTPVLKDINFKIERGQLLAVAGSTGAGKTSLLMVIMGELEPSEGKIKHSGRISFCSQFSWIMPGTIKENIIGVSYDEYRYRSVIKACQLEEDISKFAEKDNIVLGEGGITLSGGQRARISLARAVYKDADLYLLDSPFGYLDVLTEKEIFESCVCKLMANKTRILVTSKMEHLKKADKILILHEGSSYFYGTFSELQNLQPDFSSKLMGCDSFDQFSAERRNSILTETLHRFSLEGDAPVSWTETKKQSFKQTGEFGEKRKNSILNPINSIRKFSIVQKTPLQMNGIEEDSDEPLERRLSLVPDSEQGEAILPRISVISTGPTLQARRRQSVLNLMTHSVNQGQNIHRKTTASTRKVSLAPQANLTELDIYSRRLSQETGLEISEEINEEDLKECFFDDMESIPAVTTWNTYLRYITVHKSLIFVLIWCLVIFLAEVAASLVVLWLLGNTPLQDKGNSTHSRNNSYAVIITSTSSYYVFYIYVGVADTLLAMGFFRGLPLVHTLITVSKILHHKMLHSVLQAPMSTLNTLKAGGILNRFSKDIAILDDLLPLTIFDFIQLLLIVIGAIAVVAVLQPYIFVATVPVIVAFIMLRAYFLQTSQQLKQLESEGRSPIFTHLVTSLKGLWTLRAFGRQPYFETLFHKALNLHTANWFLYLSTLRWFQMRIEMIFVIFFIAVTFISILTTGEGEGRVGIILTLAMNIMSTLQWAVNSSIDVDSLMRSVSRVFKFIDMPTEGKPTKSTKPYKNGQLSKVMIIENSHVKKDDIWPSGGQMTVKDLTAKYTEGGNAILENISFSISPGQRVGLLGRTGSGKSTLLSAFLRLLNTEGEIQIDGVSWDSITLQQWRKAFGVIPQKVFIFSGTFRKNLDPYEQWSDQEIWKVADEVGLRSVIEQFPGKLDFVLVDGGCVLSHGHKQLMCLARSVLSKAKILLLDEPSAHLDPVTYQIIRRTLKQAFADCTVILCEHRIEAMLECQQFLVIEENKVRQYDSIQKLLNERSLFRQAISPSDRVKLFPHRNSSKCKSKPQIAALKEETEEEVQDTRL

For the compound `O=C(O)c1cc(N2CCN(CC(=O)N3CCOCC3)CC2)c2c(C3CCC3)nn(-c3ccccc3)c2n1` [compound 474, 3-cyclobutyl-4-{4-[2-(morpholin-4-yl)-2-oxoethyl]piperazin-1-yl}-1-phenyl-1H-pyrazolo[3,4-b]pyridine-6-carboxylic acid], on ΔF508-CFTR [1], the “% Activation” value is reported as 301.35% and the EC50 was 2.25 µM. Also, on ΔF508-CFTR [2] (setting [3]), the “% Activation” value is 125.3% and the EC50 came to 3.34 µM.

With `CCN(CC)C1CCN(c2cc(C(=O)O)nc3c2c(C(C)C)nn3-c2ccc(F)cc2)CC1` [compound 787, 4-[4-(diethylamino)piperidin-1-yl]-1-(4-fluorophenyl)-3-(propan-2-yl)-1H-pyrazolo[3,4-b]pyridine-6-carboxylic acid], the “% Activation” value on ΔF508-CFTR [1] was found to be 309.9%; on ΔF508-CFTR [2] (setting [3]), 121.5%. The figures for the EC50 at ΔF508-CFTR [1] and at ΔF508-CFTR [2] (setting [3]) were 1.29 µM and 0.771 µM, respectively.

Turning to `CC(C)c1nn(-c2cccc(N3CCCC3)c2)c2nc(C(=O)O)cc(-c3ccc(N4CCOCC4)cc3)c12` [compound 157, 4-[4-(morpholin-4-yl)phenyl]-3-(propan-2-yl)-1-[3-(pyrrolidin-1-yl)phenyl]-1H-pyrazolo[3,4-b]pyridine-6-carboxylic acid], the “% Activation” value on ΔF508-CFTR [1] is given as 621%; at ΔF508-CFTR [2] (setting [4]), 388.2%. The EC50 on ΔF508-CFTR [1] stood at 0.485 µM; on ΔF508-CFTR [2] (setting [5]), 0.459 µM.

As for `O=CN1CCN(CC2CCN(c3cc(C(=O)O)nc4c3c(C3CCC3)nn4-c3ccccc3)CC2)CC1` [compound 843, 3-cyclobutyl-4-{4-[(4-formylpiperazin-1-yl)methyl]piperidin-1-yl}-1-phenyl-1H-pyrazolo[3,4-b]pyridine-6-carboxylic acid], on ΔF508-CFTR [1], the “% Activation” value was found to be 499.3% and the EC50 was found to be 0.207 µM. Moreover, at ΔF508-CFTR [2] (setting [3]), the “% Activation” value is recorded as 264.2% and the EC50 was 0.366 µM.

As to `O=C(O)c1cc(N2CCC(N3CCOCC3)CC2)c2c(C3CCC3)nn(-c3ccc(OC(F)(F)F)cc3)c2n1` [compound 909, 3-cyclobutyl-4-[4-(morpholin-4-yl)piperidin-1-yl]-1-[4-(trifluoromethoxy)phenyl]-1H-pyrazolo[3,4-b]pyridine-6-carboxylic acid], on ΔF508-CFTR [1], the “% Activation” value turned out to be 498.4% and the concentration for a half-maximal effect (EC50) was found to be 0.0562 µM. At ΔF508-CFTR [2] (setting [3]), the “% Activation” value is on record as 277.7% and the EC50 was determined as 0.134 µM.

Regarding `O=C(O)c1cc(O[C@H]2CCOC2)c2c(C3CCC3)nn(-c3ccccc3)c2n1` [compound 583], at ΔF508-CFTR [1], the “% Activation” value is recorded as 287.75% and the EC50 is 0.46 µM. Further, on ΔF508-CFTR [2] (setting [3]), the “% Activation” value came to 134.7% and the EC50 was 1.02 µM.

With `Cc1cccc(-n2nc(C(C)C)c3c(N4CC(F)C4)cc(C(=O)O)nc32)c1` [compound 174, 4-(3-fluoroazetidin-1-yl)-1-(3-methylphenyl)-3-(propan-2-yl)-1H-pyrazolo[3,4-b]pyridine-6-carboxylic acid], the “% Activation” value on ΔF508-CFTR [1] was 260.12%; on ΔF508-CFTR [2] (setting [4]), 90.21%. Besides, the EC50 was 2.54 µM on ΔF508-CFTR [1] and 3.24 µM at ΔF508-CFTR [2] (setting [5]).

With `CC(C)c1nn(-c2ccc(F)cc2)c2nc(C(=O)O)cc(N3CCC(O)(CN(C)C(C)C)CC3)c12` [compound 798, 1-(4-fluorophenyl)-4-(4-hydroxy-4-{[methyl(propan-2-yl)amino]methyl}piperidin-1-yl)-3-(propan-2-yl)-1H-pyrazolo[3,4-b]pyridine-6-carboxylic acid], at ΔF508-CFTR [1], the “% Activation” value came to 186.5% and the EC50 came to 0.864 µM. Also, at ΔF508-CFTR [2] (setting [3]), the “% Activation” value stood at 58.3% and the EC50 came out at 1.67 µM.

With `O=C(O)c1cc(N2CCC3(CCCC3)CC2)c2c(C3CCC3)nn(-c3ccccc3)c2n1` [compound 452, 4-(8-azaspiro[4.5]decan-8-yl)-3-cyclobutyl-1-phenyl-1H-pyrazolo[3,4-b]pyridine-6-carboxylic acid], the “% Activation” value on ΔF508-CFTR [1] was 282.3%; at ΔF508-CFTR [2] (setting [3]) it was 74.98%. Further, the EC50 on ΔF508-CFTR [1] and on ΔF508-CFTR [2] (setting [3]) was 1.11 µM in each case.

As for `COc1cccc(-n2nc(C)c3c(-c4ccc(N5CCN(CC#N)CC5)cc4)cc(C(=O)O)nc32)c1` [compound 232, 4-{4-[4-(cyanomethyl)piperazin-1-yl]phenyl}-1-(3-methoxyphenyl)-3-methyl-1H-pyrazolo[3,4-b]pyridine-6-carboxylic acid], the “% Activation” value came to 380.95% at ΔF508-CFTR [1] and 215.6% on ΔF508-CFTR [2] (setting [4]). Also, the EC50 came to 1.28 µM at ΔF508-CFTR [1] and 1.68 µM on ΔF508-CFTR [2] (setting [5]).

In the case of `CCN(CC)CCCOc1cc(C(=O)O)nc2c1c(C1CCC1)nn2-c1ccccc1` [compound 624, 3-cyclobutyl-4-[3-(diethylamino)propoxy]-1-phenyl-1H-pyrazolo[3,4-b]pyridine-6-carboxylic acid], on ΔF508-CFTR [1], the “% Activation” value is on record as 281.85% and the EC50 turned out to be 2.21 µM. Besides, at ΔF508-CFTR [2] (setting [3]), the “% Activation” value is on record as 98.14% and the EC50 worked out at 3.33 µM.

In the case of `CCOC(=O)N1CCN(c2cc(C(=O)O)nc3c2c(C2CCC2)nn3-c2ccc(F)cc2)CC1` [compound 929, 3-cyclobutyl-4-[4-(ethoxycarbonyl)piperazin-1-yl]-1-(4-fluorophenyl)-1H-pyrazolo[3,4-b]pyridine-6-carboxylic acid], the entries for the “% Activation” value at ΔF508-CFTR [1] and at ΔF508-CFTR [2] (setting [6]) were 560% and 474.3%, respectively. Besides, the EC50 at ΔF508-CFTR [1] came out at 0.0833 µM; at ΔF508-CFTR [2] (setting [6]), 0.181 µM.

`CC(C)c1nn(-c2cccc(N3CCOCC3)c2)c2nc(C(=O)O)cc(-c3ccc(N4CCC(C#N)CC4)nc3)c12` [compound 178]: the “% Activation” value came to 591% at ΔF508-CFTR [1] and 415% on ΔF508-CFTR [2] (setting [4]). Moreover, the EC50 on ΔF508-CFTR [1] is 0.458 µM; at ΔF508-CFTR [2] (setting [5]), 0.628 µM.

As for `O=C(O)c1cc(N2CCC(N3CCC(F)(F)CC3)CC2)c2c(C3CCC3)nn(-c3ccc(F)cc3)c2n1` [compound 850, 3-cyclobutyl-4-(4,4-difluoro[1,4′-bipiperidin]-1′-yl)-1-(4-fluorophenyl)-1H-pyrazolo[3,4-b]pyridine-6-carboxylic acid], at ΔF508-CFTR [1], the “% Activation” value is on record as 615.6% and the EC50 is 0.0889 µM. In addition, on ΔF508-CFTR [2] (setting [3]), the “% Activation” value is reported as 234.4% and the EC50 was 0.0741 µM.

In the case of `COC(=O)N1CC(c2nn(C3CCCCC3)c3nc(C(=O)O)cc(-c4cnc(N(C)C)nc4)c23)C1` [compound 166, 1-cyclohexyl-4-[2-(dimethylamino)pyrimidin-5-yl]-3-[1-(methoxycarbonyl)azetidin-3-yl]-1H-pyrazolo[3,4-b]pyridine-6-carboxylic acid], the results for the “% Activation” value on ΔF508-CFTR [1] and at ΔF508-CFTR [2] (setting [4]) were 241.5% and 68.01%, respectively. In addition, the EC50 was 3.26 µM on ΔF508-CFTR [1] and 3.34 µM on ΔF508-CFTR [2] (setting [5]).

In the case of `O=C(O)c1cc(OCCN2CCCCCC2)c2c(C3CCC3)nn(-c3ccccc3)c2n1` [compound 643, 4-[2-(azepan-1-yl)ethoxy]-3-cyclobutyl-1-phenyl-1H-pyrazolo[3,4-b]pyridine-6-carboxylic acid], at ΔF508-CFTR [1], the “% Activation” value worked out at 271.8% and the EC50 was 1.26 µM. Further, at ΔF508-CFTR [2] (setting [3]), the “% Activation” value was 95.84% and the EC50 is 2.9 µM.

Turning to `Cc1nn(-c2ccccc2)c2nc(C(=O)O)cc(N3CC(N4CCOCC4)C3)c12` [compound 302, 3-methyl-4-[3-(morpholin-4-yl)azetidin-1-yl]-1-phenyl-1H-pyrazolo[3,4-b]pyridine-6-carboxylic acid], the “% Activation” value came to 131.6% at ΔF508-CFTR [1] and 18.02% on ΔF508-CFTR [2] (setting [4]). Moreover, the EC50 at ΔF508-CFTR [1] and on ΔF508-CFTR [2] (setting [5]) was 7.5 µM in each case.

Turning to `Cc1nn(-c2ccccc2)c2nc(C(=O)O)cc(N3CCC4(CC3)CN(C)C(=O)CO4)c12` [compound 288, 3-methyl-4-(4-methyl-3-oxo-1-oxa-4,9-diazaspiro[5.5]undecan-9-yl)-1-phenyl-1H-pyrazolo[3,4-b]pyridine-6-carboxylic acid], the “% Activation” value on ΔF508-CFTR [1] came out at 128%; on ΔF508-CFTR [2] (setting [4]), 20.49%. The EC50 at ΔF508-CFTR [1] and at ΔF508-CFTR [2] (setting [5]) was 7.5 µM throughout.

With `CCN1CCCN(c2cc(C(=O)O)nc3c2c(C(C)C)nn3-c2ccc(F)cc2)CC1` [compound 797, 4-(4-ethyl-1,4-diazepan-1-yl)-1-(4-fluorophenyl)-3-(propan-2-yl)-1H-pyrazolo[3,4-b]pyridine-6-carboxylic acid], on ΔF508-CFTR [1], the “% Activation” value is recorded as 178.6% and the EC50 is 1.67 µM. For the same compound, on ΔF508-CFTR [2] (setting [3]), the “% Activation” value was 31.52% and the EC50 was found to be 5 µM.

With `N#CC1CCCN(C2CCN(c3cc(C(=O)O)nc4c3c(C3CCC3)nn4-c3ccc(F)cc3)CC2)C1` (centres unmarked) [compound 871, 4-(3-cyano[1,4′-bipiperidin]-1′-yl)-3-cyclobutyl-1-(4-fluorophenyl)-1H-pyrazolo[3,4-b]pyridine-6-carboxylic acid], on ΔF508-CFTR [1], the “% Activation” value came out at 681.7% and the EC50 amounted to 0.156 µM. Also, on ΔF508-CFTR [2] (setting [3]), the “% Activation” value was 355.1% and the EC50 was 0.275 µM.
